PMC11847724 (Neoplasia (New York, N.Y.), 2025)

Assays:
rats = settings: highest dose administered; cited from earlier work
FAK = settings: preclinical studies ref 9, 10; cited from earlier work
ALK = settings: preclinical studies ref 9, 10; cited from earlier work
[1] = Plasma pharmacokinetics of ESK-440 and metabolite CEP-38901; assay type: in vivo, human

## CNC(=O)c1ccccc1Nc1nc(Nc2ccc3c(c2OC)CCC[C@H](N2CCN(CCO)CC2)C3)ncc1Cl [ESK-440]
rats
  highest non-severely toxic dose (HNSTD): 30 mg/kg
FAK
  potency: low nanomolar
ALK
  potency: low nanomolar
[1]; 25 mg/day (N = 3)
  Robs (observed accumulation ratio = AUCτ on day 15/AUC0-24 on day 1): 3.3 (0.76)
[1]; 50 mg/day (N = 3)
  Robs (observed accumulation ratio = AUCτ on day 15/AUC0-24 on day 1): 2.2 (1.11)
[1]; 100 mg/day (N = 3)
  Robs (observed accumulation ratio = AUCτ on day 15/AUC0-24 on day 1): 4.2 (3.47)
[1]; 150 mg/day (N = 3)
  Robs (observed accumulation ratio = AUCτ on day 15/AUC0-24 on day 1): 3.1 (0.17)
[1]; 250 mg/day (N = 4)
  Robs (observed accumulation ratio = AUCτ on day 15/AUC0-24 on day 1): 2.9 (0.81)
[1]; 350 mg/day (N = 4)
  Robs (observed accumulation ratio = AUCτ on day 15/AUC0-24 on day 1): 3.3 (0.63)
[1]; 500 mg/day (N = 4)
  Robs (observed accumulation ratio = AUCτ on day 15/AUC0-24 on day 1): 2.4 (0.43)
[1]; 700 mg/day (N = 5)
  Robs (observed accumulation ratio = AUCτ on day 15/AUC0-24 on day 1): 2.2 (0.74)
[1]; day 1 and day 15, up to 500 mg/day
  dose dependence of Cmax and AUC0-24: dose-proportional
[1]; human, plasma, oral
  half-life: 9.4 to 20.8 h
[1]; human, plasma, oral, 25 mg/day
  AUC: 666 ng·h/mL
[1]; human, plasma, oral, 25 mg/day, AUC0-24, Day 1, 25 mg/day (N = 3)
  AUC(0-t): 222 ng·h/mL
[1]; human, plasma, oral, 25 mg/day, AUC0-t, Day 1, 25 mg/day (N = 3)
  AUC(0-t): 223 ng·h/mL
[1]; human, plasma, oral, 25 mg/day, AUC0-t, Day 15, 25 mg/day (N = 3)
  AUC(0-t): 666 ng·h/mL
[1]; human, plasma, oral, 25 mg/day, Day 1, 25 mg/day (N = 3)
  Cmax: 20.7 ng/mL
[1]; human, plasma, oral, 25 mg/day, Day 15, 25 mg/day (N = 3)
  Cmax: 36.7 ng/mL
[1]; human, plasma, oral, 25 mg/day, tmax, Day 1, 25 mg/day (N = 3), median (range)
  Tmax: 3 h
[1]; human, plasma, oral, 25 mg/day, tmax, Day 15, 25 mg/day (N = 3), median (range)
  Tmax: 3 h
[1]; human, plasma, oral, 50 mg/day
  AUC: 995 ng·h/mL
[1]; human, plasma, oral, 50 mg/day, AUC0-24, Day 1, 50 mg/day (N = 3)
  AUC(0-t): 508 ng·h/mL
[1]; human, plasma, oral, 50 mg/day, AUC0-t, Day 1, 50 mg/day (N = 3)
  AUC(0-t): 517 ng·h/mL
[1]; human, plasma, oral, 50 mg/day, AUC0-t, Day 15, 50 mg/day (N = 3)
  AUC(0-t): 1020 ng·h/mL
[1]; human, plasma, oral, 50 mg/day, Day 1, 50 mg/day (N = 3)
  Cmax: 38.1 ng/mL
[1]; human, plasma, oral, 50 mg/day, Day 15, 50 mg/day (N = 3)
  Cmax: 55.6 ng/mL
[1]; human, plasma, oral, 50 mg/day, tmax, Day 1, 50 mg/day (N = 3), median (range)
  Tmax: 3 h
[1]; human, plasma, oral, 50 mg/day, tmax, Day 15, 50 mg/day (N = 3), median (range)
  Tmax: 3.9 h
[1]; human, plasma, oral, 100 mg/day
  AUC: 5420 ng·h/mL
[1]; human, plasma, oral, 100 mg/day, AUC0-24, Day 1, 100 mg/day (N = 3)
  AUC(0-t): 1480 ng·h/mL
[1]; human, plasma, oral, 100 mg/day, AUC0-t, Day 1, 100 mg/day (N = 3)
  AUC(0-t): 1540 ng·h/mL
[1]; human, plasma, oral, 100 mg/day, AUC0-t, Day 15, 100 mg/day (N = 3)
  AUC(0-t): 5660 ng·h/mL
[1]; human, plasma, oral, 100 mg/day, Day 1, 100 mg/day (N = 3)
  Cmax: 97.3 ng/mL
[1]; human, plasma, oral, 100 mg/day, Day 15, 100 mg/day (N = 3)
  Cmax: 273 ng/mL
[1]; human, plasma, oral, 100 mg/day, tmax, Day 1, 100 mg/day (N = 3), median (range)
  Tmax: 2 h
[1]; human, plasma, oral, 100 mg/day, tmax, Day 15, 100 mg/day (N = 3), median (range)
  Tmax: 4 h
[1]; human, plasma, oral, 150 mg/day
  AUC: 4980 ng·h/mL
[1]; human, plasma, oral, 150 mg/day, AUC0-24, Day 1, 150 mg/day (N = 3)
  AUC(0-t): 1580 ng·h/mL
[1]; human, plasma, oral, 150 mg/day, AUC0-t, Day 1, 150 mg/day (N = 3)
  AUC(0-t): 1560 ng·h/mL
[1]; human, plasma, oral, 150 mg/day, AUC0-t, Day 15, 150 mg/day (N = 3)
  AUC(0-t): 4950 ng·h/mL
[1]; human, plasma, oral, 150 mg/day, Day 1, 150 mg/day (N = 3)
  Cmax: 128 ng/mL
[1]; human, plasma, oral, 150 mg/day, Day 15, 150 mg/day (N = 3)
  Cmax: 321 ng/mL
[1]; human, plasma, oral, 150 mg/day, tmax, Day 1, 150 mg/day (N = 3), median (range)
  Tmax: 3.1 h
[1]; human, plasma, oral, 150 mg/day, tmax, Day 15, 150 mg/day (N = 3), median (range)
  Tmax: 2.1 h
[1]; human, plasma, oral, 250 mg/day
  AUC: 13300 ng·h/mL
[1]; human, plasma, oral, 250 mg/day, AUC0-24, Day 1, 250 mg/day (N = 4)
  AUC(0-t): 4740 ng·h/mL
[1]; human, plasma, oral, 250 mg/day, AUC0-t, Day 1, 250 mg/day (N = 4)
  AUC(0-t): 4850 ng·h/mL
[1]; human, plasma, oral, 250 mg/day, AUC0-t, Day 15, 250 mg/day (N = 4)
  AUC(0-t): 14200 ng·h/mL
[1]; human, plasma, oral, 250 mg/day, Day 1, 250 mg/day (N = 4)
  Cmax: 435 ng/mL
[1]; human, plasma, oral, 250 mg/day, Day 15, 250 mg/day (N = 4)
  Cmax: 732 ng/mL
[1]; human, plasma, oral, 250 mg/day, tmax, Day 1, 250 mg/day (N = 4), median (range)
  Tmax: 3.5 h
[1]; human, plasma, oral, 250 mg/day, tmax, Day 15, 250 mg/day (N = 4), median (range)
  Tmax: 3.5 h
[1]; human, plasma, oral, 350 mg/day
  AUC: 16800 ng·h/mL
[1]; human, plasma, oral, 350 mg/day, AUC0-24, Day 1, 350 mg/day (N = 4)
  AUC(0-t): 5180 ng·h/mL
[1]; human, plasma, oral, 350 mg/day, AUC0-t, Day 1, 350 mg/day (N = 4)
  AUC(0-t): 5320 ng·h/mL
[1]; human, plasma, oral, 350 mg/day, AUC0-t, Day 15, 350 mg/day (N = 4)
  AUC(0-t): 17900 ng·h/mL
[1]; human, plasma, oral, 350 mg/day, Day 1, 350 mg/day (N = 4)
  Cmax: 334 ng/mL
[1]; human, plasma, oral, 350 mg/day, Day 15, 350 mg/day (N = 4)
  Cmax: 869 ng/mL
[1]; human, plasma, oral, 350 mg/day, tmax, Day 1, 350 mg/day (N = 4), median (range)
  Tmax: 5 h
[1]; human, plasma, oral, 350 mg/day, tmax, Day 15, 350 mg/day (N = 4), median (range)
  Tmax: 4 h
[1]; human, plasma, oral, 500 mg/day
  AUC: 36500 ng·h/mL
[1]; human, plasma, oral, 500 mg/day, AUC0-24, Day 1, 500 mg/day (N = 5)
  AUC(0-t): 17700 ng·h/mL
[1]; human, plasma, oral, 500 mg/day, AUC0-t, Day 1, 500 mg/day (N = 5)
  AUC(0-t): 17800 ng·h/mL
[1]; human, plasma, oral, 500 mg/day, AUC0-t, Day 15, 500 mg/day (N = 4)
  AUC(0-t): 37600 ng·h/mL
[1]; human, plasma, oral, 500 mg/day, Day 1, 500 mg/day (N = 5)
  Cmax: 1160 ng/mL
[1]; human, plasma, oral, 500 mg/day, Day 15, 500 mg/day (N = 4)
  Cmax: 1910 ng/mL
[1]; human, plasma, oral, 500 mg/day, tmax, Day 1, 500 mg/day (N = 5), median (range)
  Tmax: 4.1 h
[1]; human, plasma, oral, 500 mg/day, tmax, Day 15, 500 mg/day (N = 4), median (range)
  Tmax: 6.8 h
[1]; human, plasma, oral, 700 mg/day
  AUC: 25700 ng·h/mL
[1]; human, plasma, oral, 700 mg/day, AUC0-24, Day 1, 700 mg/day (N = 5)
  AUC(0-t): 11300 ng·h/mL
[1]; human, plasma, oral, 700 mg/day, AUC0-t, Day 1, 700 mg/day (N = 5)
  AUC(0-t): 11500 ng·h/mL
[1]; human, plasma, oral, 700 mg/day, AUC0-t, Day 15, 700 mg/day (N = 5)
  AUC(0-t): 25900 ng·h/mL
[1]; human, plasma, oral, 700 mg/day, Day 1, 700 mg/day (N = 5)
  Cmax: 839 ng/mL
[1]; human, plasma, oral, 700 mg/day, Day 15, 700 mg/day (N = 5)
  Cmax: 1310 ng/mL
[1]; human, plasma, oral, 700 mg/day, tmax, Day 1, 700 mg/day (N = 5), median (range)
  Tmax: 4 h
[1]; human, plasma, oral, 700 mg/day, tmax, Day 15, 700 mg/day (N = 5), median (range)
  Tmax: 6.1 h
[1]; human, plasma, oral, median tmax, range across dose levels, day 1
  Tmax: 2 to 5 h
[1]; human, plasma, oral, median tmax, range across dose levels, day 15
  Tmax: 2.1 to 6.8 h
